Consider 3 compounds from patent US20200239937A1, “BIOMARKERS FOR DIAGNOSING CONDITIONS” (The Council of the Queensland Institute of Medical Research, priority 2017, published 2020).

For assay [1], the system named is G9a. Kind of assay: G9a immunoblotting of nuclear extracts. The class given is cell-based.
In assay [2] the test system is G9a. Kind of assay: Ubiquitination assay (His-ubiquitin pull-down, G9a immunoblot). The class given is cell-based. Particulars: MCF7 cells, DMOG 1 mM. On the procedure:
The ubiquitination assay was performed as described previously (Lee, Mol. Cell, 2012). Briefly, cells were transfected with expression constructs including His-tagged ubiquitin and treated with 5 μg/ml of MG132 for 4 hrs, lysed in buffer A (6 M guanidinium-HCl, 100 mM sodium phosphate, 10 mM Tris-HCl (pH 8.0), 5 mM imidazole, and 10 mM β-mercaptoethanol), and incubated with Ni^2+-NTA beads (QIAGEN) for 4 hrs at room temperature. The beads were then washed sequentially with buffer A, buffer B (8 M urea, 100 mM sodium phosphate buffer, 10 mM Tris-HCl (pH 8.0), and 10 mM β-mercaptoethanol), and buffer C (8 M urea, 100 mM sodium phosphate buffer, 10 mM Tris-HCl (pH 6.3), and 10 mM β-mercaptoethanol). Bound proteins were eluted with buffer D (200 mM imidazole, 150 mM Tris-HCl (pH 6.7), 30% glycerol, 0.72 M β-mercaptoethanol, and 5% SDS), and subject to immunoblot analysis.

Assay [3] has as its system G9a and pVHL. Kind of assay: Co-immunoprecipitation of G9a and pVHL. The class given is cell-based. Particulars: MCF7 cells, immunoprecipitated with anti-HA.
Assay [4] concerns Bre80 and MCF10A breast epithelial cells. Kind of assay: Cell survival (MTT) in normal-like breast epithelial cells. The class given is cell-based. Particulars: UNC0642 at 5 μM. On the procedure:
(§1) For proliferation studies, cells (5×10^3) were seeded in 96-place wells and allowed to attach overnight, and then incubated in fresh growth medium in the presence of either the G9a inhibitor UNC0642 (Sigma Aldrich) or the vehicle control DMSO (Sigma Aldrich). Proliferation was evaluated via real-time imaging using IncuCyte Zoom (Essen BioScience) or by performing SRB assays at the end of the treatment. For SRB assays, medium was aspirated and cells were fixed in methylated spirits before being washed with water and stained with SRB (Sigma Aldrich) solution (0.4% in 1% acetic acid). The intensity of the staining was obtained using an optical plate reader at 564 nm. Cell viability was determined using a 3-(4,5-dimethylthiazol-2-yl)-2,5-diphenyltetrazolium bromide ([…]) assay. Cells (3×10^3/well) were seeded directly into 96-well plates and allowed to adhere overnight. 96 hours after drug treatment, 20 μL of MU (5 mg/mL; Sigma-Aldrich) was added. The plates were incubated at 37° C. for 3 hrs before the supernatants were removed, and 100 μL of isopropanol was added to each well. The absorbance value (optical density) of each well was measured at 570 nm.

Assay [5] deals with MDA231. Kind of assay: SRB assay, MDA231. The class given is cell-based. Particulars: MDA231, 48 hour treatment, normoxic and hypoxic conditions. The method, then: as §1
The test system of assay [6] is MCF7. Kind of assay: SRB assay, MCF7. The class given is cell-based. The settings on record: MCF7, 48 hour treatment, normoxic and hypoxic conditions. The method, then:
as §1
Background: The SRB assay estimates cell density from bound dye.

Assay [7] relates to H3K9me2 at promoters of G9a-repressed genes. Kind of assay: ChIP of H3K9me2 on promoters of G9a-repressed genes. Format: cell-based. The settings on record: MCF7 cells, 3 μM UNC0642, hypoxia. On the procedure:
(§2) Quantitative RT-PCR and ChIP assays were conducted as previously described.

Assay [8] concerns 10 G9a-suppressed genes. Kind of assay: Real-time qPCR of the 10 G9a-suppressed genes. Format: cell-based. The settings on record: versus control cells. The method, then:
as §2
Briefly, total RNA was isolated using Trizol (Invitrogen) and reverse transcription was performed from 2.5 μg of total RNA using the Superscript III cDNA synthesis kit (Invitrogen). The abundance of mRNA was detected by an ABI VIIA7 system with SYBR Green Master Mix (Life Technologies). Primer pairs were designed to amplify 90-150 bp mRNA specific fragments and were confirmed as unique products by melting curve analysis. The quantity of mRNA was calculated using ΔΔCt method and normalized by using primers to detect HPRT. All reactions were performed in triplicates.
(In qPCR the cycle at which signal appears reflects the starting amount.)

The test system of assay [9] is MCF7 and MDA231 cells. Kind of assay: Proliferation by IncuCyte Zoom real-time imaging. The class given is cell-based. The settings on record: 48 hours. On the procedure:
as §1

Assay [10] deals with H3K9me2. Kind of assay: Immunoblotting of global H3K9me2. Particulars: MCF7 nuclear extracts, 6 hrs. Format: cell-based.
The subject of assay [11] is AT3 syngeneic mammary tumor. Kind of assay: AT3 syngeneic mammary tumor growth in vivo. Further details: species or system C57BL/6 mice. Particulars: 5 mg/kg intraperitoneally every two days. The method, then: C57BL/6 mice were purchased from the ARC Animal Resources Center. Groups of 8 to 10 mice per experiment were used for experimental tumor assays to ensure adequate power to detect biologic differences. All experiments were approved by the QIMR Berghofer Medical Research Institute Animal Ethics Committee. A total of 1×10^6 AT3 tumor cells were subcutaneously injected into mice in a 100 μL volume (on day 0) and UNC0642 administered every two days between days 16 and day 36. Tumor growth was measured using a digital calliper, and tumor volumes are presented as mean±SEM.

Assay [12] concerns breast cancer cell motility (MCF7, MDA231). Kind of assay: Scratch wound assay. Format: cell-based.
For assay [13], the system named is breast cancer cell lines. Kind of assay: Cell survival (MTT) in breast cancer cell lines. Format: cell-based. Particulars: UNC0642 at 5 μM. On the procedure: as §1

Molecules are shown by their SMILES. Residues, ends and D or L forms follow the SMILES beside them. *: point of attachment. Cbz = O=C(OCc1ccccc1)*

Consider `COC(=O)CNC(=O)C(=O)OC` [DMOG, dimethyloxaloylglycine], for which, in assay [1] (MCF7 and MDA231 cells, DMOG 1 mM, DFA 100 μM), the G9a protein levels entry was “increase in G9a protein levels”. For the same compound, the “level of G9a polyubiquitination” value in assay [2] is on record as “markedly reduced”. Besides, the “interaction between G9a and pVHL” value in [3] is “significantly inhibited”.
As for `COc1cc2c(NC3CCN(C(C)C)CC3)nc(N3CCC(F)(F)CC3)nc2cc1OCCCN1CCCC1` [UNC0642], the cell survival result in [4] is on record as “unaffected”. The “cells present after treatment” value in [5] and in [6] was “less than 20%” throughout. Moreover, the “hypoxia-mediated increase in H3K9me2 in promoters of G9a-repressed genes” value in assay [7] is “almost completely abrogated or significantly reduced”. The “hypoxia repression of expression of the 10 G9a-suppressed genes” value in assay [8] is “repression was abolished”. Besides, the “confluency at the end of the experiment, fold less compared to vehicle control” value in [9] (2-3 μM) was 2 to 2.5 fold. Further, the “proliferation compared to vehicle control” value in [9] (various concentrations) was “dose-dependent reduction in proliferation”. Besides, the “global H3K9me2” value in assay [10] is reported as “significant reduction”. For the same compound, the “mean tumor volume at end-point versus vehicle treated group” value in [11] is recorded as “significantly lower”. In addition, the tumor growth result in assay [11] (days 16 to 36) was “significantly reduced tumor growth”. The wound closure entry in [12] (hypoxic condition, 72 hours) is recorded as “not able to close the wound even after 72 hours”. Further, the “cellular migration (denuded area versus vehicle control)” value in assay [12] (normoxic condition) is on record as “inhibit cellular migration”. In addition, in assay [13], the “survival of cancer cell lines” value is recorded as “significantly attenuated”.
As for `CC(C)C[C@@H](C=O)NC(=O)[C@H](CC(C)C)NC(=O)[C@H](CC(C)C)NC(=O)OCc1ccccc1` [MG132] (Cbz-Leu-Leu-Leu-aldehyde), the G9a protein level entry in assay [1] (MCF7 cells, normoxia, 9 hrs, 20 μM MG132) is “increase in G9a protein level”.
